Laboratory results as given in patent US20160009727A1, “SA[…] PP2C INHIBITORS FOR CANCER TREATMENT” (Lixte Biotechnology, Inc., priority 2013, published 2016).
Read-outs that look alike come from different tables or passages of the source.

How the values were obtained:
A549 (lung carcinoma) = assay: A549 WST assay (cell growth / cell viability); type: cell-based, human; conditions: for IC50: Homo sapiens; for effect on cell growth and cell viability of A549: A549 in vitro, result in words
U87MG (glioblastoma) = assay: U-87 MG WST assay (cell growth / cell viability); type: cell-based, human; conditions: for IC50: Homo sapiens; for effect on cell growth and cell viability of U87MG: U87MG in vitro, result in words
[1] = A549 (lung carcinoma), summary, FIG. 1 / Discussion, read-out: IC50, inhibition of growth in vitro of A549
[2] = first A549 WST assay, FIG. 2, read-out: IC50, first A549 WST assay
[3] = second A549 WST assay, FIG. 3, read-out: IC50, second A549 WST assay
[4] = U-87 MG, U87MG (glioblastoma), summary, FIG. 1 / Discussion, read-out: IC50, inhibition of growth in vitro of U87MG
[5] = first U-87 MG WST assay, FIG. 4, read-out: IC50, first U-87 MG WST assay
[6] = second U-87 MG WST assay, FIG. 5, read-out: IC50, second U-87 MG WST assay
[7] = listed as N-ethyl derivative of sanguinarine

| Compound | IC50 (A549 (lung carcinoma); [1]) [nM] | IC50 (A549 (lung carcinoma); [2]) [nM] | IC50 (A549 (lung carcinoma); [3]) [nM] | IC50 (U87MG (glioblastoma); [4]) [nM] | IC50 (U87MG (glioblastoma); [5]) [nM] | IC50 (U87MG (glioblastoma); [6]) [nM] | melting point [°C] | effect on cell growth and cell viability of A549 (A549 (lung carcinoma)) | effect on cell growth and cell viability of A549 (A549 (lung carcinoma); [7]) | effect on cell growth and cell viability of U87MG (U87MG (glioblastoma)) | effect on cell growth and cell viability of U87MG (U87MG (glioblastoma); [7]) |
| --- | --- | --- | --- | --- | --- | --- | --- | --- | --- | --- | --- |
| C[n+]1cc2c3c(ccc2c2ccc4cc5c(cc4c21)OCO5)OCO3 [sanguinarine, 13-methyl-[1,3]benzodioxolo[5,6-c]-1,3-dioxolo[4,5-i]phenanthridinium, reference compound] | 800 | 800 | 800 | 2000 | 2000 | 2000 |  |  |  |  |  |
| CC[C@@]1(O)C(=O)OCc2c1cc1n(c2=O)Cc2cc3c(CN(C)C)c(O)ccc3nc2-1 [Topotecan, reference compound] | 200 | ~200 | ~200 | 300 | ~300 | ~300 |  |  |  |  |  |
| c1cc2c(cnc3c4cc5c(cc4ccc23)OCO5)c2c1OCO2 [Compound 15, 2,3,7,8-bismethylene-dioxybenzo[c]-phenanthridine] | > 10000 | > 10000 | > 10000 | > 10000 | > 10000 | > 10000 | 270 to 272 |  |  |  |  |
| CC[n+]1cc2c3c(ccc2c2ccc4cc5c(cc4c21)OCO5)OCO3.[Cl-] [Compound 17, N-Ethyl Derivative of Sanguinarine] | ~1600 | ~1600 | ~1600 | ~3300 | ~3300 | ~3300 | 258 to 259 | inhibits cell growth and reduces cell viability | inhibited cell growth | inhibits cell growth and reduces cell viability | inhibited cell growth |
| c1c2c(cc3c1OCO3)-c1ncc3c4c(ccc3c1CC2)OCO4 [Compound 14, 11,12-Dihydro-2,3,7,8-bismethylenedioxybenzo[c]phenanthridine] | > 10000 | > 10000 | > 10000 | > 10000 | > 10000 | > 10000 | 246 to 247 |  |  |  |  |
